Broadly, the IC50 is the concentration at which inhibition is half-maximal.

In one test the target is human VR1 (Homo sapiens, UniProt Q8NER1). The conditions noted are these: cited from earlier work.
The next test addresses rat VR1 (Rattus norvegicus, UniProt O35433). The conditions noted are these: cited from earlier work.
Test [1] has as its target T1, mutant VR1 receptor Y511C (Homo sapiens, UniProt Q8NER1, Y511C). The experiment in a line: Specific binding of 3H-Resiniferatoxin to membranes of 293 HEK cells. Also noted: expressed in transfected cells; host or cells: HEK293. The note with it: 3H-RTX 0.5 nM, absence or presence of unlabeled RTX 200 nM. The method, then:
Specific binding of ^3H-Resiniferatoxin (RTX) to membranes of 293 HEK cells expressing human VR 1 and mutant VR 1 receptor Y511C was assessed and the results are presented in FIG. 6. Binding of ^3H-RTX (0.5 nM) to the membranes was conducted in the absence (labeled total binding) or presence (labeled non specific binding) of unlabeled RTX (200 nM) as indicated.

Test [2] has as its target T1, mutant VR1 receptor Y511C. The experiment in a line: Two-electrode voltage clamp in Xenopus oocytes, capsaicin activation. The note with it: capsaicin concentrations as high as 100 μM. It is filed as cell-based. Here is the method: (§1) The ability of capsaicin to activate the mutant VR1 receptors was evaluated in an oocyte system. cDNAs containing the coding sequences of the unmutated human VR1 receptor as well as the mutant receptors Y511A, […], and S512Y were placed into the multiple-cloning site in the pTNT vector (Promega), which contains a T7 promoter sequence, the beta-globin 5′UTR, and a polyadenylation sequence to enhance translation and RNA stability. RNA was synthesized in-vitro using T7 RNA polymerase. The RNA for each channel was injected into Xenopus oocytes (obtained from Nasco, Inc) and incubated at 16° C. for 3-5 days. Standard two-electrode voltage clamp recordings were used to analyze the function of each expressed channel. Solutions were passed over the oocytes using a multiple-valve perfusion system.

Test [3] deals with T2, wild-type human VR1 receptor (Homo sapiens, UniProt Q8NER1).
T2 construct: expressed in transfected cells; host or cells: Xenopus oocytes (RNA injected, pTNT vector)
The test is described as above. The conditions noted are these: 10 μM capsaicin. It is filed as cell-based. The method, then:
as §1

Test [4] has as its target T3, mutant VR1 receptor Y511A (Homo sapiens, UniProt Q8NER1, Y511A).
T3 construct: expressed in transfected cells; host or cells: Xenopus oocytes (RNA injected, pTNT vector)
Described as above. The conditions noted are these: capsaicin concentrations as high as 100 μM. It counts as cell-based. Here is the method:
as §1

For test [5], the target named is T4, mutant channel S512Y (VR1) (Homo sapiens, UniProt Q8NER1, S512Y). Described as above. It is filed as cell-based. Also noted: expressed in transfected cells; host or cells: Xenopus oocytes (RNA injected, pTNT vector). Here is the method:
as §1

The target in test [6] is T1, mutant VR1 receptor Y511C. The test can be described thus: Calcium imaging with fura-2 in transfected HEK293 cells, low pH (pH 5.1) stimulus. It is filed as cell-based. Set-up: expressed in transfected cells; host or cells: HEK293. The method, then:
(§2) The resulting sequence-verified mutant VR1 DNA was inserted into the pcDNA3.1 vector (Invitrogen). Human HEK293 cells were then transfected with the DNA, incubated at 37° C. for 24-48 hrs, and then analyzed for receptor response using calcium imaging techniques.
(§3) Calcium imaging was performed using a Zeiss Axiovert 200M fluorescence microscope equipped with a Photonics Polychrome IV monochrometer fluorescence excitation system as well as a multivalve perfusion system for delivering drugs. Cells were plated on 12 mm glass coverslips and loaded with fura2-AM for 30 min at 37° C. Imaging was performed by alternatively measuring the fluorescence excited at 340 nm and 380 nm at 5 sec time intervals. The ratio between these measured fluorescence values (F340/F380) was then calculated and graphed as a function of time. The 340/380 fluorescence ratio is proportional in a nonlinear way to the intracellular free calcium concentration. Since VR1 is a calcium channel, its opening results in an influx of calcium into the cytoplasm and an increase in the 340/380 fluorescence ratio.
(§4) A normal saline (pH 7.6) wash solution was used as the control solution. […] Compound 18 is named 4-(3-Chloropyridin-2-yl)-N-(4-trifluoromethyl-phenyl)benzamide, and is described and disclosed in commonly owned co-pending International Application No. PCT/US04/033099 filed Oct. […]

Test [7] deals with T4, mutant channel S512Y (VR1). The test can be described thus: Calcium imaging with fura-2 in transfected HEK293 cells, low pH stimulus. It counts as cell-based. Set-up: expressed in transfected cells; host or cells: HEK293. The method, then: as §2, §3, §4
For test [8], the target named is T5, mutant channel Y511A (VR1) (Homo sapiens, UniProt Q8NER1, Y511A).
T5 construct: expressed in transfected cells; host or cells: HEK293
The description is as above. It counts as cell-based. The method, then:
as §2, §3, §4

Chain of rat VR1 (O35433 whole entry): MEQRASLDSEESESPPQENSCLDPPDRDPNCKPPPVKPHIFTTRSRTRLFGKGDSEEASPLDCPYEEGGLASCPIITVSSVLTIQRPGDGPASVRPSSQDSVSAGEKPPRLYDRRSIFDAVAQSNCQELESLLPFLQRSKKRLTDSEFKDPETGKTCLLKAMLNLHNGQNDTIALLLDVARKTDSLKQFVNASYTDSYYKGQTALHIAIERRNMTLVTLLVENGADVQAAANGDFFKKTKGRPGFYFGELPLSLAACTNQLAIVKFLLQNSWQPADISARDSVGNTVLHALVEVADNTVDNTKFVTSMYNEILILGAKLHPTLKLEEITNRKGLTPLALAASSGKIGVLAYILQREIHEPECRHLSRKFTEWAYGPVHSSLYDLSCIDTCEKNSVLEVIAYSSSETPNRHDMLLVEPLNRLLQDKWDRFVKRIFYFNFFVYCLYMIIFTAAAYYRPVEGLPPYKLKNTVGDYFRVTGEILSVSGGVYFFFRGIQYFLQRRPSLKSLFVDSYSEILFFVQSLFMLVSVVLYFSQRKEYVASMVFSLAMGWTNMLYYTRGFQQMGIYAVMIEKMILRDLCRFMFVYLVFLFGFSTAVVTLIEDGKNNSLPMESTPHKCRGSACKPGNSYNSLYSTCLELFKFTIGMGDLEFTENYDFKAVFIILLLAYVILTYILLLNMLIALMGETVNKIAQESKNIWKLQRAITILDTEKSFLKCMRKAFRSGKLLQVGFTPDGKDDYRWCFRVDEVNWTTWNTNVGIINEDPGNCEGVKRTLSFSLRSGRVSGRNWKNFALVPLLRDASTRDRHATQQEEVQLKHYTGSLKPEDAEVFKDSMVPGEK

`Oc1cc2c(cc1O)CN(C(=S)NCCc1ccc(Cl)cc1)CCC2` [capsazine]: the “potency of inhibition of capsaicin activation, human VR1 versus rat” value at human VR1 (greater potency on human VR1 receptors than rat) is given as “approximately 6 fold”. Besides, on human VR1 (human VR1), the “block of VR1-mediated heat response” value is recorded as “highly effective” and the “block of low pH-evoked responses” value is “blocked”. On rat VR1, the “block of low pH-evoked responses” value is recorded as “not” and the “inhibition of heat response” value was “weak inhibitor”.

As for `C=C(C)[C@]12C[C@@H](C)[C@@]34O[C@](Cc5ccccc5)(O[C@@H]1[C@@H]3C=C(COC(=O)Cc1ccc(O)c(OC)c1)C[C@]1(O)C(=O)C(C)=C[C@@H]41)O2` [RTX, resiniferatoxin], the “binding to the mutant VR1 receptor” value in [1] is on record as “no significant binding”.

Turning to `COc1cc(CC(=O)OCC2=C[C@H]3[C@@H]4C(C)(C)[C@]4(OC(C)=O)[C@H](OC(=O)Cc4ccccc4)[C@@H](C)[C@]3(O)[C@@H]3C=C(C)C(=O)[C@@]3(O)C2)ccc1O` [PPAHV, phorbol 12-phenylacetate 13 acetate 20-homovanillate], the “agonist activity on human VR1” value on human VR1 (up to a concentration of 10•M) is “essentially inactive”.

As for `COc1cc(CNC(=O)CCCC/C=C/C(C)C)ccc1O` [capsaicin], the “capsaicin response (current)” value in test [2] is reported as “no detectable capsaicin response”; in test [3] it was “large response”; in test [4] it was “no detectable capsaicin response”; in [5] (10 μM capsaicin (data not shown)), “no detectable response”; in [5] (100 μM capsaicin) it was “small capsaicin response”. For the same molecule, in test [6] (250 nM capsaicin, Y511C in transfected 293 cells), the “response to capsaicin (calcium influx)” value was “no detectable response”. The “sensitivity of channel to capsaicin” value in test [7] and in test [8] was “capsaicin-insensitive” each time.

In the case of `O=C(Nc1ccc(C(F)(F)F)cc1)c1ccc(-c2ncccc2Cl)cc1` [Compound 18, 4-(3-Chloropyridin-2-yl)-N-(4-trifluoromethyl-phenyl)benzamide], the IC50 in [6] (mutant VR1 receptor channel, read-out: IC50 for channel blocking activity) came out at 135 nM.

These data come from US20050266435A1, “VR1 receptors and uses thereof” (priority 2004, published 2005).
